In publication PMC12670426 (Journal of Medicinal Chemistry, 2025):
Like-named read-outs stand apart in the source and are kept apart here.

Experiments:
Cytotoxicity assay, THP1 = assay type: cell-based; conditions: human, THP1 cells, viability dye, flow cytometry
Experimental: (§1) To evaluate in vitro cytotoxicity and support its potential application in inflammatory and fibrotic disease models, the following panel of cell lines, representing the relevant biological systems, was used: HEK293, HepG2, THP1, Jurkat E6.1, and LX2. HEK293, HepG2, and Jurkat E6.1 cells were seeded at 400,000 cells/mL, THP1 cells at 500,000 cells/mL, and LX2 cells at 200,000 cells/mL in 96-well plates (cell culture-treated, VWR) in 100 μL/well. Cells were treated with the tested compounds in a serial dilution (300, 100, 33.3, 11.1, and 3.7 μM) for 24 h. Untreated cells served as negative controls to establish the baseline viability threshold. Cell viability was assessed using a viability dye (Zombie Violet Fixable Viability Kit, BioLegend) following the manufacturer’s instructions and analyzed by flow cytometry (see below).
(§2) Cells or beads from screening assays prepared for flow cytometry were analyzed by the CytoFlex S instrument (Beckman Coulter). Data acquisition was performed using CytExpert software (v2.5, Beckman Coulter). Debris was excluded by forward and side scatter gating, followed by doublet exclusion. Data were analyzed using FlowJo software (v10, BD Biosciences).

[1] = Microsomal stability assay, human liver microsomes; assay type: in vitro ADME; conditions: pooled liver microsomes, pH 7.4, human liver microsomes 0.5 mg/mL, NADPH
Experimental: (§3) Microsomal stability was determined using 0.5 mg/mL of pooled human, mouse, or rat liver microsomes (Thermo Fisher Scientific) in 90 mM TRIS-Cl buffer (pH 7.4) containing 2 mM NADPH and 2 mM MgCl2. Test compounds (10 μM) were added, and the resulting mixture was incubated at 37 °C for 10, 60, 120, and 180 min. The reactions were terminated by the addition of four volumes of ice-cold methanol, followed by vigorous mixing. The samples were left at −20 °C for 30 min and then stored at 4 °C overnight. The next day, samples were centrifuged, and supernatants were diluted with four volumes of 30% methanol in water. Zero time points were prepared by adding ice-cold methanol to the mixture of compounds and cofactors prior to the addition of microsomes. The samples were then analyzed using the Echo-MS system (SCIEX) with MRM transition monitoring, except for compound 3af, which was analyzed by LC–MS/MS as described in the plasma stability assay.

[2] = Plasma stability assay, rat plasma; assay type: in vitro ADME; conditions: 37 °C
Experimental: (§4) Test compounds (10 μM) were incubated with mouse, rat, or human pooled plasma from 50 donors (Biowest) at 37 °C for 20, 60, and 120 min. Reactions were terminated by adding four volumes of ice-cold methanol, followed by vigorous mixing. Samples were kept at −20 °C for 30 min and then stored at 4 °C overnight. The next day, samples were centrifuged, and supernatants were diluted with four volumes of 30% methanol in water. Zero time points were prepared by adding ice-cold methanol to the compound prior to the addition of plasma. Samples were then analyzed on an Echo MS system (SCIEX) using multiple reaction monitoring (MRM). The only exception was compound 3af, which was analyzed by LC–MS/MS (SCIEX 6500 triple quadrupole) due to its weak ionization in Echo-MS.

[3] = Cytotoxicity assay, HEK293; assay type: cell-based; conditions: human, HEK293 cells, viability dye, flow cytometry
Experimental: as §1, §2

[4] = target: T1, intracellular Gal-3 in THP1 cells (Homo sapiens, UniProt P17931); assay: Intracellular Gal-3 target engagement in THP1 cells (flow cytometry, MFI); assay type: cell-based; conditions: 2 h
T1 construct: Untreated cells served as negative and baseline controls representing maximum intracellular Gal-3 levels; endogenous in cells; host or cells: THP1 (monocyte-like or PMA-differentiated macrophage-like)
Experimental: THP1 cells were used to assess the binding of the tested compounds to Gal-3. Cells were either maintained in suspension as undifferentiated monocyte-like cells or differentiated into macrophage-like cells by overnight treatment with phorbol 12-myristate 13-acetate (PMA, Sigma-Aldrich) at a final concentration of 10 ng/mL. […] Untreated cells served as negative and baseline controls representing maximum intracellular Gal-3 levels. Cells were then harvested and intracellularly stained either with galectin-3 monoclonal antibody eF660 (Invitrogen, Thermo Fisher Scientific) or a relevant isotype antibody (Invitrogen, Thermo Fisher Scientific) for flow cytometric analyses (see below). A dose-dependent decrease in Gal-3 signal upon compound treatment was used to assess intracellular target engagement expressed as median fluorescent intensity (MFI).
as §2

Gal-1 [5] = conditions: previously reported inhibitor, Figure 1A; ref Galecto Biotech; cited from earlier work
Cytotoxicity assay, LX2 = assay type: cell-based; conditions: human, LX2 cells, viability dye, flow cytometry
Experimental: as §1, §2

Gal-3C [6] = conditions: read-out: Kd (Gal-3C); previously reported inhibitor, Figure 1A; ref Galecto Biotech; cited from earlier work
[7] = Microsomal stability assay, mouse liver microsomes; assay type: in vitro ADME; conditions: pooled liver microsomes, pH 7.4, mouse liver microsomes 0.5 mg/mL, NADPH
Experimental: as §3

[8] = test system: LPS-stimulated macrophage-like THP1 cells (TNFα secretion); assay: Anti-inflammatory potential: TNFα secretion in LPS-stimulated PMA-differentiated THP1 cells; assay type: cell-based, human; conditions: (+)PMA THP1, 1 μg/mL LPS, 24 h, up to 300 μM
Experimental: Cells were differentiated overnight into macrophage-like phenotypes by treatment with 10 ng/mL PMA and subsequently stimulated with 1 μg/mL lipopolysaccharide (LPS; Invitrogen, Thermo Fisher Scientific) to induce a proinflammatory response. […] After 24 h of LPS and compound exposure, cell culture supernatants were collected and analyzed for TNFα levels using a bead-based multiplex immunoassay (ProcartaPlex Human Basic Kit and TNFα Human ProcartaPlex Simplex Kit, both Invitrogen, Thermo Fisher Scientific). Flow cytometry readout was used as previously described. TNFα concentrations were calculated using a standard curve generated in GraphPad Prism 10 (GraphPad Software, San Diego, CA). Cells or beads from screening assays prepared for flow cytometry were analyzed by the CytoFlex S instrument (Beckman Coulter). Data acquisition was performed using CytExpert software (v2.5, Beckman Coulter). Debris was excluded by forward and side scatter gating, followed by doublet exclusion. Data were analyzed using FlowJo software (v10, BD Biosciences).

[9] = Microsomal stability assay, rat liver microsomes; assay type: in vitro ADME; conditions: pooled liver microsomes, pH 7.4, rat liver microsomes 0.5 mg/mL, NADPH
Experimental: as §3

[10] = Cytotoxicity assay, Jurkat E6.1; assay type: cell-based; conditions: human, Jurkat E6.1 cells, viability dye, flow cytometry
Experimental: as §1, §2

[11] = Plasma stability assay, human plasma; assay type: in vitro ADME; conditions: pooled plasma, 37 °C
Experimental: as §4

[12] = Cytotoxicity assay, panel of five human cell lines; assay type: cell-based; conditions: HEK293, HepG2, THP-1, Jurkat E6.1 and LX2 cells; summary in text across panel of five human cell lines
Experimental: as §1, §2

[13] = Plasma stability assay, mouse plasma; assay type: in vitro ADME; conditions: 37 °C
Experimental: as §4

[14] = Cytotoxicity assay, HepG2; assay type: cell-based; conditions: human, HepG2 cells, viability dye, flow cytometry
Experimental: as §1, §2

galectin CRD = target: galectin CRD; design: method as in not given; conditions: endogenous ligand binding the galectin CRD; literature value, ref not given; cited from earlier work
Gal-1 [15] = assay: Direct binding fluorescence polarization of the fluorescent probe, Gal-1; design: species or system human; conditions: [probe] 100 nM, mean ± SD
Experimental: (§5) Fluorescence polarization measurements were performed at 25 °C using a Tecan Spark multiplate reader (Tecan, Switzerland) with excitation at 485 ± 20 nm and emission at 535 ± 20 nm in a 384-well black polystyrene microplate (Corning 4514, USA). Dissociation constants of the probe (K d ^*) were determined by fitting the binding data with a quadratic model for direct binding using the BindCurve package. Additional details on the model, probe concentrations, and fitting parameters are provided in the Supporting Information.
(§6) Fluorescence polarization
(§7) Direct binding was modeled by a quadratic model, which is written as […]
(§8) where r corresponds to the measured anisotropy, rmin corresponds to the anisotropy of the free probe (labeled ligand), and rmax corresponds to maximal anisotropy, which is achieved when all molecules of the probe are bound to the receptor. Kd∗ is the dissociation constant of the probe and [R] is the concentration of free receptor. [R] is determined by a quadratic equation […]
(§9) where [L∗]T is the total concentration of the probe and [R]T is the total concentration of the receptor. Using quadratic formula, the positive root is calculated as […]
(§10) Table S1. Calculated Kd∗ values, total concentrations of the fluorescent probe, and model asymptotes from direct binding experiments. […]
(§11) a K∗ values are expressed as mean ± SD from two independent experiments, each performed […]

Gal-3C [16] = target: T2, Gal-3C (Homo sapiens, UniProt P17931); assay: Direct binding fluorescence polarization of the fluorescent probe, Gal-3C; conditions: [probe] 5 nM, mean ± SD
T2 construct: only the C-terminal domain was used (Gal-3C); 6xHis tag with TEV protease site (N, cleaved yes); made in house; host or cells: BL21 Escherichia coli (pET-15b)
Experimental: as §5, §6, §7, §8, §9, §10, §11

T1 sequence (P17931 whole entry): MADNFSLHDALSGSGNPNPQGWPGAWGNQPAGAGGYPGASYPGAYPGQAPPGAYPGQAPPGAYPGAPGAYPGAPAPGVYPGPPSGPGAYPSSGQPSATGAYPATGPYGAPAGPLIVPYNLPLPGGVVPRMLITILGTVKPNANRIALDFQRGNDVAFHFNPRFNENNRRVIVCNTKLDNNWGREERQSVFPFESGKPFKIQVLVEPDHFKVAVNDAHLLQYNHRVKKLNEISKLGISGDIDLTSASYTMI
T2 sequence (P17931 118-248 limits assumed): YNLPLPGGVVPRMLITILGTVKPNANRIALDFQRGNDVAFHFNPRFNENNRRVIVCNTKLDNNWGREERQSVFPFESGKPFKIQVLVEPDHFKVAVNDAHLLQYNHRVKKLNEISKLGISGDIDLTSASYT

With `OC[C@H]1O[C@@H](S[C@@H]2O[C@H](CO)[C@H](O)[C@H](n3cc(-c4cccc(F)c4)nn3)[C@H]2O)[C@H](O)[C@@H](n2cc(-c3cccc(F)c3)nn2)[C@H]1O` [GB0139, reference compound] the CC50 at 24 h (Cytotoxicity assay, THP1) was > 300 µM, the microsomal CLint at 10 μM [1] was 12 ± 6 µL/min/mg and the remaining at 2 h, 10 μM [2] was 78 ± 8%. The CC50 at 24 h [3] was > 300 µM, the “intracellular Gal-3 signal (MFI), macrophage-like THP1 cells” value ([4]; (+)PMA differentiated THP1, 3.7–300 μM) was “reduced the Gal-3 signal” and the “intracellular Gal-3 signal (MFI), monocyte-like THP1 cells” value ([4]; (−)PMA undifferentiated THP1, 3.7–300 μM) was “minimal effect”. For the same molecule, the Kd (Gal-1 [5]) was 12 nM, the CC50 at 24 h (Cytotoxicity assay, LX2) was > 300 µM and the Kd (Gal-3C [6]) was 14 nM. For the same molecule, the microsomal CLint at 10 μM [7] was 6 ± 5 µL/min/mg, the “LPS-induced TNFα secretion” value [8] was “effectively reduced TNFα secretion” and the microsomal CLint at 10 μM [9] was < 2 µL/min/mg. The CC50 at 24 h [10] was > 300 µM, the remaining at 2 h, 10 μM [11] was 110 ± 5% and the CC50 at 24 h [12] was > 300 µM. The remaining at 2 h, 10 μM [13] was 68 ± 3% and the CC50 at 24 h [14] was > 300 µM.
For `CC(=O)N[C@H]1C(O)O[C@H](CO)[C@@H](O[C@@H]2O[C@H](CO)[C@H](O)[C@H](O)[C@H]2O)[C@@H]1O` (some centres unmarked) [LacNAc, N-acetyllactosamine], the Kd (galectin CRD) is listed as ~100 µM.
Molecule `O=C(NCc1cn([C@H]2[C@@H](O)[C@@H](CO)O[C@@H](S[C@@H]3O[C@H](CO)[C@H](O)[C@H](n4cc(-c5cccc(F)c5)nn4)[C@H]3O)[C@@H]2O)nn1)c1ccc2c(c1)C(=O)OC21c2ccc(O)cc2Oc2cc(O)ccc21` [fluorescent probe, 3-deoxy-3-[4-(fluorescein-5-yl-carbonylaminomethyl)-1H-1,2,3-triazol-1-yl]-β-D-galactopyranosyl-3-deoxy-3-[4-(3-fluorophenyl)-1H-1,2,3-triazol-1-yl]-1-thio-β-D-galactopyranoside] has a Kd (Gal-1 [15]) of 740 ± 9 nM and a Kd (Gal-3C [16]) of 22 ± 2 nM.
